According to patent US10765114B2, “4-amino-6-(pyridyl and 2-substitutedphenyl)-picolinates and 6-amino-2-(pyridyl and 2-substitutedphenyl)-pyrimidine-4-carboxylates and their use as herbicides” (Dow AgroSciences LLC, priority 2013, dated 2020):

These compounds were tested on Key Broadleaf Weed and Crop Species (assay: Post-Emergent Test II (Table 5)). Settings: Abutilon theophrasti, post-emergence, 336 h, ABUTH: velvetleaf (Abutilon theophrasti), application rate 70 (kg ai/ha; footnote: g ai/ha), read-out: Visual Growth Reduction (%) 14 Days After Application ABUTH.
Format: in vivo
Outline: (§1)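 Plants grown in a greenhouse (~15 h photoperiod, 23-29° C day) to first or second true leaf stage were sprayed post-emergence at 187 L/ha with compound in acetone/DMSO-based aqueous spray containing crop oil concentrate and surfactant, applied at a high rate plus ½× to 1/16× serial rates. Injury was scored visually 14 days later, 0-100% versus untreated plants.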

Row | SMILES | pest or weed control at 70 g/ha [%]
1 | COC(=O)c1nc(-c2ccc(Cl)nc2OC)cc(N)c1Cl [Compound 48] | 85 to 94

Same assay, conditions: Abutilon theophrasti, post-emergence, 336 h, ABUTH: velvetleaf (Abutilon theophrasti), application rate 140 (kg ai/ha; footnote: g ai/ha), read-out: Visual Growth Reduction (%) 14 Days After Application ABUTH

Row | SMILES | pest or weed control at 140 g/ha [%]
2 | COC(=O)c1nc(-c2ccc(Cl)nc2OC)cc(N)c1Cl [Compound 48] | 85 to 94

Same assay, conditions: Amaranthus retroflexus, post-emergence, 336 h, AMARE: redroot pigweed (Amaranthus retroflexus), application rate 70 (kg ai/ha; footnote: g ai/ha), read-out: Visual Growth Reduction (%) 14 Days After Application AMARE

Row | SMILES | pest or weed control at 70 g/ha [%]
3 | COC(=O)c1nc(-c2ccc(Cl)nc2OC)cc(N)c1Cl [Compound 48] | 95 to 100

Same assay, conditions: Amaranthus retroflexus, post-emergence, 336 h, AMARE: redroot pigweed (Amaranthus retroflexus), application rate 140 (kg ai/ha; footnote: g ai/ha), read-out: Visual Growth Reduction (%) 14 Days After Application AMARE

Row | SMILES | pest or weed control at 140 g/ha [%]
4 | COC(=O)c1nc(-c2ccc(Cl)nc2OC)cc(N)c1Cl [Compound 48] | 95 to 100

Same assay, conditions: Brassica napus, post-emergence, 336 h, BRSSS: oilseed rape, canola (Brassica napus), application rate 70 (kg ai/ha; footnote: g ai/ha), read-out: Visual Growth Reduction (%) 14 Days After Application BRSSS

Row | SMILES | pest or weed control at 70 g/ha [%]
5 | COC(=O)c1nc(-c2ccc(Cl)nc2OC)cc(N)c1Cl [Compound 48] | 0 to 29

Same assay, conditions: Brassica napus, post-emergence, 336 h, BRSSS: oilseed rape, canola (Brassica napus), application rate 140 (kg ai/ha; footnote: g ai/ha), read-out: Visual Growth Reduction (%) 14 Days After Application BRSSS

Row | SMILES | pest or weed control at 140 g/ha [%]
6 | COC(=O)c1nc(-c2ccc(Cl)nc2OC)cc(N)c1Cl [Compound 48] | 45 to 59

Same assay, conditions: Chenopodium album, post-emergence, 336 h, CHEAL: lambsquarters (Chenopodium album), application rate 70 (kg ai/ha; footnote: g ai/ha), read-out: Visual Growth Reduction (%) 14 Days After Application CHEAL

Row | SMILES | pest or weed control at 70 g/ha [%]
7 | COC(=O)c1nc(-c2ccc(Cl)nc2OC)cc(N)c1Cl [Compound 48] | 95 to 100

Same assay, conditions: Chenopodium album, post-emergence, 336 h, CHEAL: lambsquarters (Chenopodium album), application rate 140 (kg ai/ha; footnote: g ai/ha), read-out: Visual Growth Reduction (%) 14 Days After Application CHEAL

Row | SMILES | pest or weed control at 140 g/ha [%]
8 | COC(=O)c1nc(-c2ccc(Cl)nc2OC)cc(N)c1Cl [Compound 48] | 95 to 100

Same assay, conditions: Euphorbia heterophylla, post-emergence, 336 h, EPHHL: wild poinsettia (Euphorbia heterophylla), application rate 70 (kg ai/ha; footnote: g ai/ha), read-out: Visual Growth Reduction (%) 14 Days After Application EPHHL

Row | SMILES | pest or weed control at 70 g/ha [%]
9 | COC(=O)c1nc(-c2ccc(Cl)nc2OC)cc(N)c1Cl [Compound 48] | 0 to 29

Same assay, conditions: Euphorbia heterophylla, post-emergence, 336 h, EPHHL: wild poinsettia (Euphorbia heterophylla), application rate 140 (kg ai/ha; footnote: g ai/ha), read-out: Visual Growth Reduction (%) 14 Days After Application EPHHL

Row | SMILES | pest or weed control at 140 g/ha [%]
10 | COC(=O)c1nc(-c2ccc(Cl)nc2OC)cc(N)c1Cl [Compound 48] | 0 to 29

Same assay, conditions: Helianthus annuus, post-emergence, 336 h, HELAN: sunflower (Helianthus annuus), application rate 70 (kg ai/ha; footnote: g ai/ha), read-out: Visual Growth Reduction (%) 14 Days After Application HELAN

Row | SMILES | pest or weed control at 70 g/ha [%]
11 | COC(=O)c1nc(-c2ccc(Cl)nc2OC)cc(N)c1Cl [Compound 48] | 85 to 94

Same assay, conditions: Helianthus annuus, post-emergence, 336 h, HELAN: sunflower (Helianthus annuus), application rate 140 (kg ai/ha; footnote: g ai/ha), read-out: Visual Growth Reduction (%) 14 Days After Application HELAN

Row | SMILES | pest or weed control at 140 g/ha [%]
12 | COC(=O)c1nc(-c2ccc(Cl)nc2OC)cc(N)c1Cl [Compound 48] | 85 to 94

Same assay, conditions: Viola tricolor, post-emergence, 336 h, VIOTR: wild pansy (Viola tricolor), application rate 70 (kg ai/ha; footnote: g ai/ha), read-out: Visual Growth Reduction (%) 14 Days After Application VIOTR

Row | SMILES | pest or weed control at 70 g/ha [%]
13 | COC(=O)c1nc(-c2ccc(Cl)nc2OC)cc(N)c1Cl [Compound 48] | 45 to 59

Same assay, conditions: Viola tricolor, post-emergence, 336 h, VIOTR: wild pansy (Viola tricolor), application rate 140 (kg ai/ha; footnote: g ai/ha), read-out: Visual Growth Reduction (%) 14 Days After Application VIOTR

Row | SMILES | pest or weed control at 140 g/ha [%]
14 | COC(=O)c1nc(-c2ccc(Cl)nc2OC)cc(N)c1Cl [Compound 48] | 60 to 74

The compounds below were run on Key Grass and Sedge Weeds as well as Grass Crops (assay: Post-Emergent Test II (Table 6)). Settings: post-emergence, 336 h, CYPSS, 70 g ai/ha, 14 days after application, read-out: Visual Growth Reduction (%) 14 Days After Application CYPSS.
Format: in vivo
Outline: as §1

Row | SMILES | pest or weed control at 70 g/ha [%]
15 | COC(=O)c1nc(-c2ccc(Cl)nc2OC)cc(N)c1Cl [Compound 48] | 0 to 29
